Test results taken from patent US11819021B2, “Peptides and methods and uses thereof for modulating anaphase promoting complex (APC) activity” (University of Saskatchewan, priority 2017, dated 2023).
“Also recorded” adds a separate entry of the source.

Experiments:
APC = test: Yeast 2-hybrid binding to the APC
Description: As used herein, the expression “binds to the APC” refers to a peptide that binds to at least one subunit of the APC, for example Apc5 or Apc10. Binding can be measured for example, by any method known in the art, including, but not limited to a yeast 2-hybrid assay.
(§1) The reverse genetic screen utilized a yeast 2-hybrid (Y2H) protocol that selected for peptides that bound to the APC subunits Apc5 or Apc10 (see FIG. 5 for APC structure), to assess whether peptide-binding might modify APC function. Peptides that bound APC subunits were then assayed for those that suppressed APC mutant defects.
(§2) Random small peptides were cloned into the TrxA scaffold (library provided by R. Geyer, U of S) and expressed from a galactose-inducible Y2H prey vector in cells harboring either APC5 or APC10 Y2H bait vectors (APC5/APC10 bait constructs complement APC mutant defects).

[1] = system: apc5^CA temperature sensitive mutant; test: Forward genetic screen: rescue of apc5^CA temperature sensitive growth; format: cell-based, yeast
Description: Using a forward genetic screen to test whether temperature sensitive (ts) APC mutants expressing random small peptides could grow at restrictive temperatures, millions of small peptides were rapidly screened for those that could restore mutant APC phenotypes. Peptides that rescued the apc5^CA ts (temperature sensitive) defect were recovered including peptides Y65 and Y36.
In the forward screens, with galactose-inducible TrxA-based peptide libraries, in cells harboring the apc5^CA ts allele, over 200 peptides (from millions screened) suppressed the ts phenotype. Several recovered plasmids were sequenced.

Apc10 = target: T1, Apc10 (Saccharomyces cerevisiae, UniProt P53068); test: Yeast 2-hybrid (Y2H) binding of peptide prey to Apc10 bait; settings: galactose-inducible Trx-scaffold peptide prey
T1 construct: expressed in transfected cells; host or cells: yeast Y2H cells
T1 sequence (P53068 1-250): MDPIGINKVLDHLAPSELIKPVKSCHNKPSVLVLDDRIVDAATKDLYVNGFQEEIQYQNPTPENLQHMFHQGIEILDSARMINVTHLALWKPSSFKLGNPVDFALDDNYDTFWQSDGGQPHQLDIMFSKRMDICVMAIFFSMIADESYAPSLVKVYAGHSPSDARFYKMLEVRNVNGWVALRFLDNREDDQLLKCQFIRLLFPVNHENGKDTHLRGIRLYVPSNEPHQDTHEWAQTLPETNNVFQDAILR
Protocol: as §1
A library of random small peptides were cloned into a Thioredoxin (Trx) scaffold (see FIG. 6 for Trx-aptamer structure) and expressed from a galactose-inducible Y2H prey vector in cells expressing the Apc10 bait vector (the modified Apc10 is still part of the complete APC complex). Six peptides that reproducibly interacted with the Apc10 bait construct in Y2H assays were identified (FIG. 1A) and were examined further.
as §2
(§3) Over 100 peptides that bound either Apc5 or Apc10 were recovered from millions screened. Six peptides that reproducibly interacted with the Apc10 bait construct in Y2H assays were examined further. Vectors expressing these 6 peptides were transformed into APC mutant cells and assessed for ts growth.

[2] = system: APC mutant (apc5 temperature sensitive mutant and/or apc10Δ mutant); test: Viability/growth of APC mutant yeast cells; format: cell-based
Protocol: (§4) A. apc5^CA cells expressing small peptides were assayed for replicative life span (RLS). B. Cells expressing HTZ1 were grown under stress conditions. HTZ1 expression, even at low levels, suppresses apc5^CA and apc10Δ defects. The cells shown were transformed with either an empty vector or GAL inducible HTZ1. On 2% glucose, the construct is weakly expressed, and this is enough to increase growth of APC mutants at 30° C.
Examples of yeast cells with defective anaphase promoting complex (APC) function include apc5 and apc10 mutants. An example of an apc5 mutant is the apc5 temperature sensitive mutant described herein. An example of an apc10 mutant is the apc10 deletion mutant described herein.
as §1, §3

yeast proteins = test: Yeast 2-hybrid assay for proteins interacting with the peptides; format: binding
Apc5 = target: T2, Apc5 (Saccharomyces cerevisiae, UniProt Q08683); test: Yeast 2-hybrid (Y2H) binding of peptide prey to Apc5 bait; settings: galactose-inducible Trx-scaffold peptide prey
T2 construct: expressed in transfected cells; host or cells: yeast Y2H cells
T2 sequence (Q08683 1-685): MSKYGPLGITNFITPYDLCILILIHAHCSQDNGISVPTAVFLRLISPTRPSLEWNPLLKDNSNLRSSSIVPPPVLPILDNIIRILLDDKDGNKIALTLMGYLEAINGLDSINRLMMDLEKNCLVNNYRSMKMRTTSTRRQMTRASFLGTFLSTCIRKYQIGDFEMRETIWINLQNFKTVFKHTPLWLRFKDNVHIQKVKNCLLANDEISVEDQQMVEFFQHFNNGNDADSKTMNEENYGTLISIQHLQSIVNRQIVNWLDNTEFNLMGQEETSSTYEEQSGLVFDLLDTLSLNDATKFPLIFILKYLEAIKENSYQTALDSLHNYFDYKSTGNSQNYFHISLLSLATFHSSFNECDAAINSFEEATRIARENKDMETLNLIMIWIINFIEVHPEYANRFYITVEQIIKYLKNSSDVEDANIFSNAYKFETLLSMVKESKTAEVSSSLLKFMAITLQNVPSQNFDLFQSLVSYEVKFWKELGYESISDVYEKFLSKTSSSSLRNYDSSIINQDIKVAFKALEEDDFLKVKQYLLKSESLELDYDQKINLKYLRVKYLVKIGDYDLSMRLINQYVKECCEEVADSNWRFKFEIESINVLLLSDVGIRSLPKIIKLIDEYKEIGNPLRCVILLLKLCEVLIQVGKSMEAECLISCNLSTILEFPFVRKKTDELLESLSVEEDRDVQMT
Protocol: as §1, §2, §3

apc10Δ cells = test: Spot dilution growth of apc10Δ cells expressing peptides; format: cell-based, yeast
Description: A. Y2H cells expressing the APC subunit bait and the galactose inducible Apc10 peptide prey grown on glucose or galactose. Cells co-expressing the Apc5 or Apc10-bait and Apc10 aptamer-prey vectors were spotted onto the appropriate media, in the presence or absence of galactose (the aptamers are Gal inducible), to confirm 2-hybrid interactions. Growth on trp-his-media ensures both plasmids are maintained. A 2-hybrid interaction will drive expression of the ADE2 gene, allowing growth on ade-media. B. Aptamers that bind Apc10 can suppress APC mutant phenotypes. Spot dilutions of apc10Δ cells expressing an empty vector control or the one of 6 Apc10 aptamers tested. Log phase cells were 10-fold serially diluted and spotted onto plates containing either 2% glucose or 2% galactose. The plates were then incubated at 30° C. (permissive temperature) and 34° C. (restrictive stress). C. Peptides identified as binding to the yeast Apc10 APC subunit using the yeast 2-hybrid screen increase growth of cells on stress conditions. A series of APC binding peptides were transformed into wild type yeast cells, spot diluted, and grown at 30° C. on media supplemented with the normal carbon source (2% glucose). Alternatively, cells were grown on media supplemented with 2% galactose to induce a carbon stress. D. Peptides were expressed in apc5^ts temperature sensitive cells and grown on glucose or galactose media at 30° C.
The cells were exposed to 5 sec of UV from a UV box prior to incubation.
The six peptide expressing vectors were transformed into apc10Δ cells and assessed for temperature sensitive growth. Two of the peptides, C43-4 and C2-4B, suppressed the apc10Δ growth phenotype at 30 and 34° C. (FIG. 1B-D). […]
Over 100 peptides that bound either Apc5 or Apc10 were recovered from millions screened. […] Vectors expressing these 6 peptides were transformed into APC mutant cells and assessed for ts growth.
Methods • 1. […] The growth of the cells was determined by measuring the optical density (OD) of the cells at 600 nm (OD600) • 3. […]

[3] = system: wild type (WT) yeast cells; test: Spot dilution growth and stress resistance of wild type yeast cells expressing peptides; format: cell-based
Protocol: (§5) A. apc5^CA (temperature sensitive allele) cells were transformed with C43-4, C2-4B or an empty vector. Cells grown overnight in 2% Glu were struck onto 2% Glucose plates and used for the yeast replicative lifespan (RLS) assay. B. Wild type (WT) cells transformed with C43-4, C2-4B or an empty vector were grown to stationary phase in 2% Glu media, then after 2 days spot diluted onto 2% Glu or 2% Gal to induce expression of the aptamers.
The cells were exposed to 5 sec of UV from a UV box prior to incubation. The plus signs define growth compared to the empty vector control.
(§6) The six peptide expressing vectors were transformed into apc10Δ cells and assessed for temperature sensitive growth. Two of the peptides, C43-4 and C2-4B, suppressed the apc10Δ growth phenotype at 30 and 34° C. (FIG. 1B-D). […] However, C43-4 and C2-4B increased replicative and chronological lifespan in both apc5^CA and WT cells, respectively (FIG. 2A). […] H2O2 induces oxidative stress whereas galactose induces a carbon stress.
These cells were spot diluted on Trp-plates and grown at the temperatures shown and/or exposed to ultraviolet (UV) irradiation (FIG. 11). At low level expression on glucose, some of the mutations caused stress dependent phenotypes.
Methods • 1. Cells were cultured overnight in Trp-2% glucose media • 2. The growth of the cells was determined by measuring the optical density (OD) of the cells at 600 nm (OD600) • 3. Cells were diluted to OD600 of 1 with fresh culture media • 4. 100 ul of each culture was pipetted into a well of a 96 well plate • 5. 10 ul of the each starting culture was pipetted into 90 ul of water in 4 additional wells to make a 10-fold serial spot dilution • 6. 5 ul from each serial dilution was spotted onto plates containing standard growth media with either 2% glucose or 2% galactose using a multi-pipettor • 7. The plates were exposed to UV • 8. The plates were then placed at room temperature, 30, 34 or 37° C. for 3-7 days • 9. The plates were scanned and saved as tiff files

WT cells = test: Chronological lifespan of WT yeast cells; format: cell-based
Protocol: as §5, §6

apc5^CA cells = test: Yeast replicative lifespan (RLS) assay; format: cell-based
Protocol: as §5, §4

SWLNGSGGVVLWLFSNFCCG [Y36]
Binding to the APC in a yeast 2HY assay (APC): not bind the APC in a yeast 2HY | apc5^CA temperature sensitive (ts) growth / viability of an apc5 temperature sensitive mutant [1]: increases the viability; also recorded: rescued; also recorded: Rescues apc5^CA temperature

GRMLMTYLMYFMVLWVPRPWGPPL [1-8]
Binds Apc10 in a yeast 2 hybrid assay (Apc10): Binds Apc10 | Binds Apc10 in a yeast 2 hybrid assay (Apc10; listed as SEQ ID NO: 8): binds Apc10 | Viability of an APC mutant [2]: increases the viability

CECLETETFHPITRHLIVPV [9-5]
Proteins identified as interacting in a yeast 2 hybrid assay (yeast proteins): Interacts with Die2, Tim44, Yrm1 | Binds Apc5 in a yeast 2 hybrid assay (Apc5): Binds Apc5 | Binds Apc5 in a yeast 2 hybrid assay (Apc5; listed as SEQ ID NO. 3): binds Apc5 | Viability of an APC mutant [2]: increases the viability

PSYNTIKYHETHGGRHPRRQPKRPI [3-1]
Proteins identified as interacting in a yeast 2 hybrid assay (yeast proteins): Identified as interacting with Sld5,; also recorded: Hms2, Gnt1 and Vnx1 in a yeast | Binds Apc10 in a yeast 2 hybrid assay (Apc10): Binds Apc10 | Binds Apc10 in a yeast 2 hybrid assay (Apc10; listed as SEQ ID NO. 5): binds Apc10 | Viability of an APC mutant [2]: increases the viability

RMPQWWQWMWV [C2-4B, Peptide aptamer with homology to yeast protein Sum1]
apc10Δ growth phenotype (apc10Δ cells; 30 and 34° C.): suppressed | Log phase growth of wild type (WT) cells ([3]; 30° C.): Neither C43-4 nor C2-4B influenced | Stress resistance when overexpressed in WT yeast cells ([3]; overexpressed, H2O2 oxidative stress, galactose carbon stress): increased stress resistance | Chronological lifespan (WT cells): increased | Binds Apc5 in a yeast 2 hybrid assay (Apc5): Binds Apc5 | Binds Apc5 in a yeast 2 hybrid assay (Apc5; listed as 02-4B): binds Apc5 | Replicative lifespan (apc5^CA cells): increased | Viability of an APC mutant [2]: increases the viability

GALKEVCICIVESVGGEVFSGP [compound 4]
Proteins identified as interacting in a yeast 2 hybrid assay (yeast proteins): Identified as interacting with Hxt2,; also recorded: Mad2, Ubc7, Rpp2, Kap122, Sfa1,; also recorded: Oac1 and Vps13 in a yeast 2- | Binds Apc5 in a yeast 2 hybrid assay (Apc5): Binds Apc5 | Binds Apc5 in a yeast 2 hybrid assay (Apc5; listed as SEQ ID NO. 6): binds Apc5 | Viability of an APC mutant [2]: increases the viability

RRCLSIRTENLAWEGKFLRV [50-1]
Proteins identified as interacting in a yeast 2 hybrid assay (yeast proteins): Identified as interacting with Pxa1,; also recorded: Rrp12, and Hfm1 in a yeast 2- | Binds Apc10 in a yeast 2 hybrid assay (Apc10): Binds Apc10 | Binds Apc10 in a yeast 2 hybrid assay (Apc10; listed as SEQ ID NO: 9): binds Apc10 | Viability of an APC mutant [2]: increases the viability

NGSSHNDARVRRLTLISRLC (Artificial Sequene) [C43-4-3, Version of C43-4 where the leucine residue at position 8 is replaced with alanine]
Toxicity in apc10Δ cells (apc10Δ cells; glucose or galactose media, 5 sec UV (FIG. 13)): remained toxic | Resistance to UV stress compared to C43-4 cells ([3]; FIG. 11, UV treated, for example at room temperature): increased resistance to UV stress | Growth compared to C43-4 cells ([3]; FIG. 11, for example at room temperature): increased growth | Stress resistance at low level expression ([3]; WT cells on glucose, temperature and/or UV stress, versus empty vector): increased stress resistance further | Binds Apc10 in a yeast 2 hybrid assay (Apc10): binds Apc10

SKWTWRMCMSWTVDRFAPVPWP [24-1]
Binds Apc5 in a yeast 2 hybrid assay (Apc5): Binds Apc5 | Binds Apc5 in a yeast 2 hybrid assay (Apc5; listed as SEQ ID NO: 7): binds Apc5 | Viability of an APC mutant [2]: increases the viability
